Data reported in patent US12281323B2, “Treatment for restoring ureagenesis in carbamoyl phosphate synthetase 1 deficiency” (The Regents of the University of California, priority 2019, dated 2025).

System: conditional CPS1 knock out mouse model
Assay: sAAV efficacy in vivo in conditional CPS1 knock out mouse model (floxed Cps1 removed by AAV-Cre)
Conditions: sAAV-treated mice additionally treated with n-carglumic acid
Excerpt: To illustrate the ability of sAAVs to treat CPS1 deficiency, sAAVs encoding human codon optimized CPS1 (hcoCPS1) driven by the constitutive CAG promoter were generated and tested in a conditional CPS1 knock out mouse model (see, e.g. Khoja et al., Molecular Genetics and Metabolism. 2018 Aug. 1; 124(4):243-253). […] Currently, there is no effective therapy for human patients with CPS1 disorders. Our data from this gene therapy model in mice having knocked out endogenous CPS1 expression provides evidence that this treatment can address this unmet need for these patients.
In illustrative embodiments of the invention, to test sAAV efficacy in vivo, a conditional CPS1 knock out mouse model was used. These mice contain biallelic floxed Cps1 which is removed by treatment with an AAV expressing Cre recombinase (AAV-Cre). […] Treatment with the small molecule n-carglumic acid, an analog of NAG, the allosteric activator of CPS1, further extended lifespan (all mice >120 days; p<0.01) and maintained near normal plasma ammonia (baseline: 138.87 μM±86.5; post-treatment: 217.8 μM±69.9; p=0.15).

NC(=O)N[C@@H](CCC(=O)O)C(=O)O [n-carglumic acid] showed a lifespan (all mice, p<0.01) of over 120 days and a plasma ammonia post-treatment (±69.9, baseline 138.87 μM±86.5, p=0.15) of 217.8 µM.
